Reference: patent US12509431B2, “1,4-dihydroquinazolinone compounds and uses thereof” (Edgewise Therapeutics, Inc., priority 2022, dated 2025)

Experiments:
[1] = system: Rabbit Skeletal myofibrils (rabbit psoas muscle); assay: Myofibril ATPase assay (PK/LDH NADH-coupled), skeletal myofibrils; format: biochemical
In short: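 Rabbit psoas myofibrils in pCa (PIPES/CaCl2/EGTA, pH 7.0) buffer; ADP coupled via PK/LDH to NADH loss, read at 340 nm every 1.5–2 min for 75 min. Slopes normalized to vehicle (100%) and fit to 4-parameter logistic for EC25, plus EC50 for inhibitors.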

[2] = molecular target: T1, myosin+native RLC (Sus scrofa, UniProt P79293); assay: NADH-coupled actin-activated ATPase assay, myosin + native RLC; format: biochemical; settings: 1 μM myosin, rabbit skeletal actin, 25° C., 1% DMSO
T1 construct: Full-length myosin was resuspended to 1 mg/mL
Protocol: Full-length myosin was resuspended to 1 mg/mL in a buffer containing 500 mM KCl, 10 mM KPi, 15 mM CDTA, pH 8.5. Triton-X was then added to a final concentration of […], and the suspension was agitated for 15 minutes at room temperature to selectively remove the regulatory light chain (RLC). RLC-removed myosin was then precipitated and collected and resuspended in a buffer containing 400 mM KCl, 50 mM Mops, pH 7, 2 mM MgCl2, and 1 mM DTT. Recombinantly expressed and purified human ventricle RLC was added in a 3-fold molar excess to myosin and incubated on ice for 2 hours to allow for reassociation of the RLC onto myosin. Triton (0.1%) was added to the reaction to prevent any non-specific binding events. RLC-exchanged myosin was then precipitated and collected and resuspended in a buffer containing 12 mM PIPES, pH 6.8, […], 2 mM MgCl2, and 1 mM DTT. RLC removal and exchange were confirmed by SDS-PAGE and proteins were visualized using coomassie stain.
Myosin was resuspended in buffer A (f.c.=12 mM PIPES, pH 6.8, 30 mM KCl, 2 mM MgCl2, 1 mM DTT, 0.1 mg/mL BSA, 0.01% (v/v) Antifoam 204, and 0.6% (v/v) PK/LDH (final reaction contains ≥3.6 U/mL PK and >5.4 U/mL LDH)) at final concentrations of 1 μM for myosin+native RLC and 2 μM for myosin+removed RLC and myosin+human ventricle RLC. Buffer A was then mixed with an equal volume of buffer B (f.c.=12 mM PIPES, pH 6.8, 30 mM KCl, 2 mM MgCl2, 1 mM DTT, 0.1 mg/mL BSA, 0.01% (v/v) Antifoam 204, 0.5 mM NADH, 1.5 mM phosphoenolpyruvate, 1 mM ATP, and 0.3 mg/mL filamentous rabbit skeletal actin) in a 384-well plate. Dose-dependent compound effects were assessed by adding the compounds at varying concentrations between 100 μM and 2 nM, all with a constant final DMSO concentration of 1% v/v. The reactions were run at a constant temperature of 25° C. in the plate reader to monitor the change in A340 over time. Measurements were taken every 90 sec for 75 min to generate raw time-domain absorbance data, which was processed to normalized reaction rates. Normalized enzymatic rates were calculated, using rates observed in 1% (v/v) in DMSO as 100% and 0 slope as 0%. Compound-specific activity curves were generated by plotting the normalized rates versus compound concentration and fitting the data to a 4-parameter logistic model. In addition to the fit parameters, the IC25% was calculated, relative to the 100% normalized value.

T1 sequence (P79293 whole entry): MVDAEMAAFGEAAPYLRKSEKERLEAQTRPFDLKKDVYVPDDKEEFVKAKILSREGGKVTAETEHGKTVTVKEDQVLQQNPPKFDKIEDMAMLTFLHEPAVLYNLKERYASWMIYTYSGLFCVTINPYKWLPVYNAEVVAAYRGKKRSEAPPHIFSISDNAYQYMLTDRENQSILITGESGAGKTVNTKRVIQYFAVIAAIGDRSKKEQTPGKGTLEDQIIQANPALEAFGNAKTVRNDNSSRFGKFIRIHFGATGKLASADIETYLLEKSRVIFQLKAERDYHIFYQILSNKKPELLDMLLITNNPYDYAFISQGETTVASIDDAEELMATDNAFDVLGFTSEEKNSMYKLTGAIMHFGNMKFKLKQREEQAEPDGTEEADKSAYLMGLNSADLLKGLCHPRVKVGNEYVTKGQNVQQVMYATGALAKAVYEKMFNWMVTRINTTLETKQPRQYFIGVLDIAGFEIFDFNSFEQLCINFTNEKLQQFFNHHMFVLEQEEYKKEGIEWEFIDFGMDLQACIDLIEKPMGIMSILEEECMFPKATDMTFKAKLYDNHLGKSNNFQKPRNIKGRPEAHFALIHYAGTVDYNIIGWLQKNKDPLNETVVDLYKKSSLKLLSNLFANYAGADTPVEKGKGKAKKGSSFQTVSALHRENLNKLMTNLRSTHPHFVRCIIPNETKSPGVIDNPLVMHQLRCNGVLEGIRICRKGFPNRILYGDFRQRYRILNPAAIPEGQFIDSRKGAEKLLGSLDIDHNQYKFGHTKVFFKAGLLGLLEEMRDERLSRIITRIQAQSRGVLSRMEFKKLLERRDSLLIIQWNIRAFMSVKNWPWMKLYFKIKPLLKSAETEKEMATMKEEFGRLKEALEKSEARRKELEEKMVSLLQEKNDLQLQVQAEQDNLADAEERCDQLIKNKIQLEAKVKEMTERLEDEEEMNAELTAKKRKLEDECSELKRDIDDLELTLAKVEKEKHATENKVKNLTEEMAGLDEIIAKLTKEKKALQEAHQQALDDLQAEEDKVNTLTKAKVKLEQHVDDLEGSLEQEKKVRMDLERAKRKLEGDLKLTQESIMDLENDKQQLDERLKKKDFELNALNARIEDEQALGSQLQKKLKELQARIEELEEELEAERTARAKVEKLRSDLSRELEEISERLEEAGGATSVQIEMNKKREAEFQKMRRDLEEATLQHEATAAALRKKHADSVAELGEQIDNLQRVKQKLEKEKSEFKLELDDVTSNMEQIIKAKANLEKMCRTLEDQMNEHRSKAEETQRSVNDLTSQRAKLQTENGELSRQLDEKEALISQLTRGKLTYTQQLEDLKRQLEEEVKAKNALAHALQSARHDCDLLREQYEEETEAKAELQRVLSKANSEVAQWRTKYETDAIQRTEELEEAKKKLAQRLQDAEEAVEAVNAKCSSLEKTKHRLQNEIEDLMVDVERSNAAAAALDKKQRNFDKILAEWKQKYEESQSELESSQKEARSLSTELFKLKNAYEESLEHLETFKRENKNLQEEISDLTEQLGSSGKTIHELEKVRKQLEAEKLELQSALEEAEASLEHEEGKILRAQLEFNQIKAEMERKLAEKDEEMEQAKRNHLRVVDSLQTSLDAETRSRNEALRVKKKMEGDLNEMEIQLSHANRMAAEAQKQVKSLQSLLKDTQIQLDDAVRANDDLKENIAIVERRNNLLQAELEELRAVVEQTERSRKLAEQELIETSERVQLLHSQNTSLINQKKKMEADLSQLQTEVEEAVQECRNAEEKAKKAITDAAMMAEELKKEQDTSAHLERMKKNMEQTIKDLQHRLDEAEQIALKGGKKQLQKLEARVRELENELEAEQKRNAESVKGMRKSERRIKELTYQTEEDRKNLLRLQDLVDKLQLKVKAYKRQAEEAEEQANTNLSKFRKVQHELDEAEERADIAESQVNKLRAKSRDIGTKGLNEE

| SMILES | Rabbit Psoas IC25 ([1]; Table 8) [µM] | Potency, Full-length myosin + native porcine ventricle RLC [2] [µM] | Rabbit Psoas IC25 ([1]; Table 7) [µM] |
| --- | --- | --- | --- |
| CC(NC(=O)CN1Cc2cc(F)ccc2NC1=O)c1ccc(C#N)cc1F (single isomer, unassigned) [Compound B206] | 0.01129 | 0.97 |  |
| C[C@H](NC(=O)CN1Cc2c(ccc(F)c2F)NC1=O)c1ncc(F)cc1F [Compound B191] | 0.02019 | 0.45 |  |
| C[C@H](NC(=O)CN1Cc2cc(F)ccc2NC1=O)c1ncc(C#N)cc1F [Compound B199] | 0.0394 | 0.56 |  |
| C[C@H](NC(=O)CN1Cc2cc(F)ccc2NC1=O)c1ccc(F)cc1F [Compound B247, N-[(1S)-1-(2,4-Difluorophenyl)ethyl]-2-(6-fluoro-2-oxo-1,4-dihydroquinazolin-3-yl)acetamide] | 0.03205 | 0.97 |  |
| O=C(CN1C(=O)Nc2cccnc2C12CC2)N[C@@H]1COc2cc(F)cc(F)c21 [Compound N33] |  | 0.40 | 0.01937 |

Other lines, results leading:

| Rabbit Psoas IC25 ([1]; Table 8) [µM] | Potency, Full-length myosin + native porcine ventricle RLC [2] [µM] | Rabbit Psoas IC25 ([1]; Table 7) [µM] | SMILES |
| --- | --- | --- | --- |
| 0.0191 | 0.55 |  | N#Cc1cnc2c(c1)OCC2NC(=O)CN1Cc2c(ccc(F)c2F)NC1=O (single isomer, unassigned) [Compound B65] |
| 0.4228 | 15.48 |  | C[C@@H](NC(=O)CN1Cc2c(ccc(F)c2F)NC1=O)c1ncc(C#N)cc1F [Compound B141, (R)—N-(1-(5-cyano-3-fluoropyridin-2-yl)ethyl)-2-(5,6-difluoro-2-oxo-1,4-dihydroquinazolin-3(2H)-yl)acetamide] |
| 0.0116 | 1.19 |  | O=C(CN1Cc2cc(F)ccc2NC1=O)N[C@@H]1COc2cc(F)cc(F)c21 [Compound B145] |
| 0.01623 | 0.63 |  | O=C(CN1Cc2c(ccc(F)c2F)NC1=O)N[C@@H]1COc2cc(F)cc(F)c21 [Compound B147] |
| 0.01879 | 0.39 |  | C[C@H](NC(=O)CN1Cc2c(ccc(F)c2F)NC1=O)c1ccc(C#N)cc1F [Compound B189] |
